Data on one compound can be found in patent US7482371B2, “N-phenylbenzamide derivatives as drugs for the treatment of COPD” (Rottapharm S.p.A., priority 2004, dated 2009).

Assay [1] relates to newborn rat cultured DRG neurons. As to the kind of experiment: [Ca2+]i mobilization in cultured DRG neurons (Fura-2). In kind it is cell-based. The method, then: Dorsal root ganglia (DRG) were removed from 1-3 days old rats and dissociated into single cells according to well established procedures. Cells, plated on coated glass coverslips were loaded with Fura-2-AM-ester to detect relative intracellular calcium ([Ca^2+]i) changes.
During the Ca^2+ fluorescence the cells were excited with electrical stimulation (10 Hz, 1 ms, 0.40 mA/cm^2 for 10 sec) twice with a resting period between each stimulation of 20 min. These experiments were performed in the presence or absence of 100 nM charybdotoxin.

Assay [2] has as its system slices of rat dorsal spinal cord. As to the kind of experiment: CGRP-LI outflow from slices of rat dorsal spinal cord (EIA). In kind it is cell-based. The method, then: (§1) Slices of guinea pig trachea and bronchi or of rat dorsal spinal cord were prepared and transferred to perfusion chambers and perfused. After an equilibration period, samples were collected before, during and after the delivery of an excitatory stimulus (KCl 80 mM). The effect of Andolast was compared with the effect of its vehicle. CGRP-like immunoreactivity (GCRP-LI) was measured by enzyme immunoassay (EIA).
In the rat dorsal spinal cord the experiments with Andolast were performed also in the presence of 100 nM charybdotoxin.

Assay [3] concerns slices of guinea pig airways. The assay can be described thus: CGRP-LI outflow from slices of guinea pig airways (EIA). In kind it is cell-based. The method, then:
as §1

For assay [4], the system named is guinea pig isolated bronchial rings. The assay can be described thus: eNANC contractile response of isolated guinea pig bronchial rings. In kind it is cell-based. The method, then: Guinea pig bronchial rings were mounted in organ baths. After an equilibration period the eNANC contractile response to EFS (5 Hz, 20 sec, 0.5 ms pulse width at 40 V) in the presence of atropine (1 μM) was studied. The effects of Andolast or its vehicle on the eNANC were studied in parallel experiments in the presence or absence of 100 nM charybdotoxin. The ability of Andolast to affect the direct bronchoconstrictor activity of SP was also studied.

The test system of assay [5] is human B lymphocytes from allergic donors. As to the kind of experiment: IL-4 dependent IgE synthesis by human B lymphocytes. The assay is classed as cell-based.
The next assay concerns T lymphocytes (Th2). As to the kind of experiment: Treatment course in atopic mild-moderate asthmatic patients. The assay is classed as in vivo, human. To be noted: standard treatment course.

As a reminder, the inhibition is the drop in the measured response relative to a control, in per cent. With `O=C(Nc1ccc(-c2nn[nH]n2)cc1)c1ccc(-c2nn[nH]n2)cc1` [Andolast, N-4-(1H-tetrazol-5-yl)phenyl-4-(1H-tetrazol-5-yl)benzamide], the “inhibitory effect on EFS-induced [Ca2+]i mobilization in presence of charybdotoxin” value in assay [1] (100 nM charybdotoxin (ChTX)) is reported as “completely reversed”. Moreover, in assay [1] (capsaicin 0.1 μM, pretreatment with Andolast 10 μM), the “response to capsaicin ([Ca2+]i)” value was “not affected”. In addition, the “mobilization of [Ca2+]i in response to ionomycin” value in assay [1] (pre-treatment with Andolast 10 μM or its vehicle) is “similar”. In addition, the “response to EFS ([Ca2+]i mobilization)” value in assay [1] (pretreatment with Andolast compared to vehicle, EFS 10 Hz, 1 ms, 0.40 mA/cm2 for 10 sec) is on record as “diminished the response to EFS”. Further, in assay [2] (100 nM charybdotoxin), the “inhibition of high K+ induced CGRP-LI outflow in presence of charybdotoxin” value is reported as “completely abrogated”. Besides, the “maximum inhibition of the outflow of CGRP-LI induced by high K+ medium” value in assay [2] (Andolast 1 μM, KCl 80 mM) is recorded as 48 % of vehicle. For the same compound, the “outflow of CGRP-LI (without stimulus)” value in assay [2] (Andolast 0.1-1 μM, rat dorsal spinal cord slices) is recorded as “did not cause any significant increase”. In addition, the “outflow of CGRP-LI induced by high K+ medium” value in assay [2] (KCl 80 mM, rat dorsal spinal cord slices) is on record as “concentration-dependent inhibition”. Besides, the “outflow of CGRP-LI (without stimulus)” value in assay [3] (Andolast 0.1-1 μM, guinea pig airway slices) is “did not cause any significant increase”. Besides, the inhibition at 1 µM in assay [3] (Cavia porcellus, Andolast 1 μM, KCl 80 mM, read-out: inhibition of the CGRP-LI outflow induced by high K+ medium) was 67%. Besides, the “contractile response to SP” value in assay [4] (Andolast 10 μM) was “did not affect”. In addition, the inhibition at 10 µM in assay [4] (Cavia porcellus, 10 μM Andolast, atropine 1 μM, read-out: maximum inhibition of the contractile response to EFS) is 45%. Also, in assay [4] (charybdotoxin 0.1 μM), the “effect on EFS contraction in presence of charybdotoxin” value was “completely abrogated”. For the same compound, the “contractile response to EFS (eNANC)” value in assay [4] (in the presence of atropine (1 μM), pretreatment with Andolast) is “diminished dose-dependently”. The “IL-4 dependent IgE synthesis” value in assay [5] is reported as “potent inhibitory effect”. For the same compound, in the assay on T lymphocytes (Th2), the “T lymphocytes (Th2) production of IL-5” value is listed as “inhibitory effect” and the “percentage of eosinophils in the sputum” value is “decrease”.
